Laboratory results: patent publication US7592347B2, “Piperazine derivates and their use for the treatment of neurological and psychiatric diseases” (Glaxo Group Limited, priority 2003, dated 2009)

Target: T1, histamine H3 receptor (Homo sapiens, UniProt Q9Y5N1)
T1 construct: expressed in transfected cells; host or cells: CHO K1 cells carrying pSwitch, transfected with pGeneH3 and induced with mifepristone; clone 3H3; membranes
Assay: Histamine H3 functional antagonist assay ([35S]GTPγS SPA, membranes of CHO K1 cells expressing human H3)
Type: biochemical
Conditions: functional antagonism of histamine (0.3 μM) stimulated [35S]GTPγS binding, membranes of CHO K1 cells with human histamine H3
Method: A membrane preparation containing histamine H3 receptors may be prepared in accordance with the following procedures:
Ligated DNA was transformed into competent DH5α E. coli host bacterial cells and plated onto Luria Broth (LB) agar containing Zeocin™ (an antibiotic which allows the selection of cells expressing the sh ble gene which is present on pGene and pSwitch) at 50 μg ml^−1. Colonies containing the re-ligated plasmid were identified by restriction analysis. DNA for transfection into mammalian cells was prepared from 250 ml cultures of the host bacterium containing the pGeneH3 plasmid and isolated using a DNA preparation kit (Qiagen Midi-Prep) as per manufacturers guidelines (Qiagen).
CHO K1 cells previously transfected with the pSwitch regulatory plasmid (InVitrogen) were seeded at 2×10e6 cells per T75 flask in Complete Medium, containing Hams F12 (GIBCOBRL, Life Technologies) medium supplemented with 10% v/v dialysed foetal bovine serum, L-glutamine, and hygromycin (100 μg ml^−1), 24 hours prior to use. Plasmid DNA was transfected into the cells using Lipofectamine plus according to the manufacturers guidelines (InVitrogen). 48 hours post transfection cells were placed into complete medium supplemented with 500 μg ml^−1 Zeocin™.
10-14 days post selection 10 nM Mifepristone (InVitrogen), was added to the culture medium to induce the expression of the receptor. […] Approximately 1×10e7 cells were examined for receptor expression by staining with a rabbit polyclonal antibody, 4a, raised against the N-terminal domain of the histamine H3 receptor, incubated on ice for 60 minutes, followed by two washes in sorting medium. […] Following two further washes with Sorting Medium, cells were filtered through a 50 μm Filcon™ (BD Biosciences) and then analysed on a FACS Vantage SE Flow Cytometer fitted with an Automatic Cell Deposition Unit. […] Positively stained cells were sorted as single cells into 96-well plates, containing Complete Medium containing 500 μg ml^−1 Zeocin™ and allowed to expand before reanalysis for receptor expression via antibody and ligand binding studies.
All steps of the protocol are carried out at 4° C. and with pre-cooled reagents. The cell pellet is resuspended in 10 volumes of buffer A2 containing 50 mM N-2-hydroxyethylpiperazine-N′-2-ethanesulfonic acid (HEPES)(pH 7.40) supplemented with 10e−4M leupeptin (acetyl-leucyl-leucyl-arginal; Sigma L2884), 25 μg/ml bacitracin (Sigma B0125), 1 mM ethylenediamine tetra-acetic acid (EDTA), 1 mM phenylmethylsulfonyl fluoride (PMSF) and 2×10e−6M pepstain A (Sigma). The cells are then homogenised by 2×15 second bursts in a 1 litre glass Waring blender, followed by centrifugation at 500 g for 20 minutes. The supernatant is then spun at 48,000 g.for 30 minutes. The pellet is resuspended in 4 volumes of buffer A2 by vortexing for 5 seconds, followed by homogenisation in a Dounce homogeniser (10-15 strokes). At this point the preparation is aliquoted into polypropylene tubes and stored at −70° C. […]
The plate is then incubated on a shaker at room temperature for 30 minutes followed by centrifugation for 5 minutes at 1500 rpm. The plate is read between 3 and 6 hours after completion of centrifuge run in a Wallac Microbeta counter on a 1 minute normalised tritium count protocol. Data is analysed using a 4-parameter logistic equation. Basal activity used as minimum i.e. histamine not added to well.

T1 sequence (Q9Y5N1 whole entry): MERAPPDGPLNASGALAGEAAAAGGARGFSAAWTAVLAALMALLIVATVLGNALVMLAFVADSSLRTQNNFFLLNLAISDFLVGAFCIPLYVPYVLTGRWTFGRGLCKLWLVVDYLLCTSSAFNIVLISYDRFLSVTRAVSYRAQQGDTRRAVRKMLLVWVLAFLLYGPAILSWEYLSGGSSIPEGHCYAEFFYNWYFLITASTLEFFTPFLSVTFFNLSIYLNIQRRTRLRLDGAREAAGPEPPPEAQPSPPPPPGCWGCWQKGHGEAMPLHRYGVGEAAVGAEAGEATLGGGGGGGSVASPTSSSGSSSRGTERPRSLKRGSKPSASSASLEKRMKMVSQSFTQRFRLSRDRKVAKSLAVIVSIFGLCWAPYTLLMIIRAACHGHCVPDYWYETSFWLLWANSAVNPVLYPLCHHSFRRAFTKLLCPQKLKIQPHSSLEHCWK

Kb	Compound
< 3.16 nM	CC(=O)c1ccc(N2CCC(C(=O)N3CCCN(C4CCC4)CC3)CC2)cc1 [Example E170, 1-Cyclobutyl-4-[1-(4-acetylphenyl)-piperidine-4-carbonyl]-[1,4]-diazepane]
< 3.16 nM	N#Cc1ccc(N2CCC(C(=O)N3CCCN(C4CCC4)CC3)CC2)cn1 [Example E179, 1-Cyclobutyl-4-[1-(6-cyano-pyridin-3-yl)-piperidine-4-carbonyl]-[1,4]-diazepane]
< 3.16 nM	CC(C)N1CCCN(C(=O)C2CCN(c3ccc(C#N)nc3)CC2)CC1 [Example E180, 1-Isopropyl-4-[1-(6-cyano-pyridin-3-yl)-piperidine-4-carbonyl]-[1,4]-diazepane]
< 3.16 nM	Cc1noc(-c2ccc(N3CCC(C(=O)N4CCN(C(C)C)CC4)CC3)cc2)n1 [Example E185, 1-Isopropyl-4-{1-[4-(3-methyl-1,2,4-oxadiazol-5-yl)phenyl]-piperidine-4-carbonyl}-piperazine]
< 3.16 nM	CC(C)N1CCCN(C(=O)C2CCN(c3cnc(C(F)(F)F)nc3)CC2)CC1 [Example E198, 1-Isopropyl-4-[1-(2-trifluoromethylpyrimidin-5-yl)-piperidine-4-carbonyl]-[1,4]-diazepane]
